Data as given in paper PMC12040169 (PLOS Biology, 2025).

Experiment: in vitro
Conditions: human, hela cells, % viability

Q: With Nc1cc(-c2ccccc2)nn1-c1ccc(C(=O)O)cc1 [CBK286565] as the compound, how does the viability at 28.5 h, 10 µM read?
A: 84.9%

Q: With CCc1c(C)sc(NC(=O)C2CCC2)c1C(=O)NCc1cccnc1 [CBK307414] as the compound, how does the viability at 28.5 h, 10 µM read?
A: 115%

Q: Which viability at 28.5 h, 10 µM does the source give for Cn1c(=O)c2c(nc(CN3CCN(Cc4ccccc4)CC3)n2CCc2ccccc2)n(C)c1=O [CBK269523] here?
A: 90.9%

Q: For O=C(Nc1cccnc1)c1ccc(F)cc1Cl [CBK288246], which viability at 28.5 h, 10 µM is on record?
A: 89.9%

Q: Which viability at 28.5 h, 10 µM does the source give for c1ccc2c(c1)OCC(COc1ccnc(N3CCCN(CC4CCCCC4)CC3)n1)O2 (stereo not drawn) [CBK083982] here?
A: 115%

Q: With Cc1ccc(C(=O)N2CC=C(c3c[nH]c4ncccc34)CC2)cn1 [CBK297889] as the compound, how does the viability at 28.5 h, 10 µM read?
A: 103%

Q: For CC(NC(=O)Cc1ccccc1F)c1nc2cccnc2n1C(C)C (stereo not drawn) [CBK283829], which viability at 28.5 h, 10 µM is on record?
A: 90.8%

Q: Which viability at 28.5 h, 10 µM does the source give for CS(=O)(=O)Nc1cc(-c2noc([C@@H]3CCCN3Cc3ccncc3)n2)ccn1 [CBK288886] here?
A: 83.5%

Q: Which viability at 28.5 h, 10 µM does the source give for COc1cnc(-c2cc(Cl)cc(Cl)c2)c(NC(=O)c2ccsc2)n1 [CBK145340] here?
A: 87.8%

Q: With COc1ccccc1Cc1cccc(C2CCN(C(=O)Cc3c[nH]c4ccccc34)CC2)n1 [CBK286226] as the compound, how does the viability at 28.5 h, 10 µM read?
A: 92.8%

Q: With CCn1nnnc1NCc1ccc(OCc2ccc(F)cc2Cl)c(OC)c1 [CBK268224] as the compound, how does the viability at 28.5 h, 10 µM read?
A: 112%

Q: Which viability at 28.5 h, 10 µM does the source give for COc1ccc(OC)c(CN2CCN(CCCc3ccccc3)CC2)c1 [CBK264304] here?
A: 100%

Q: Which viability at 28.5 h, 10 µM does the source give for CSC1CCC(N(C)C(=O)NCCc2cn3cccc(C)c3n2)C1 (stereo not drawn) [CBK305324] here?
A: 84.5%

Q: With CN(c1ncc(-c2ccccc2)cc1C(=O)NCc1ccco1)S(C)(=O)=O [CBK076506] as the compound, how does the viability at 28.5 h, 10 µM read?
A: 86.3%

Q: With CCCC/N=C(\NS(=O)(=O)c1ccc(C)cc1)OCC [CBK022731] as the compound, how does the viability at 28.5 h, 10 µM read?
A: 106%

Q: For Cc1c(OCc2ccccc2)ccc2c1OC1(CCN(C(=O)c3ccccn3)CC1)CC2=O [CBK156441], which viability at 28.5 h, 10 µM is on record?
A: 106%

Q: Which viability at 28.5 h, 10 µM does the source give for CC(=O)c1cccc(NC(=O)CCCn2cc([N+](=O)[O-])cn2)c1 [CBK268911] here?
A: 82.8%

Q: Which viability at 28.5 h, 10 µM does the source give for O=C(CCc1nc(=O)c2c3c(sc2[nH]1)CCC3)N1CCCCCC1 [CBK306388] here?
A: 90.4%

Q: For CCCOCCN1CCN(C(=O)c2nn3cc(C)cnc3c2Cl)CC1 [CBK306690], which viability at 28.5 h, 10 µM is on record?
A: 95.6%

Q: Which viability at 28.5 h, 10 µM does the source give for CC(=O)Nc1ccc(S(=O)(=O)N(C)CC(=O)O)cc1 [CBK267570] here?
A: 97.8%

Q: With O=C(CCCC1CC1)N1CCn2c(nnc2-c2cncc(Br)c2)C1 [CBK304767] as the compound, how does the viability at 28.5 h, 10 µM read?
A: 96.4%

Q: For Cc1occc1C(=O)Nc1nc(CC(=O)N2CC(C)SC(C)C2)cs1 (stereo not drawn) [CBK306271], which viability at 28.5 h, 10 µM is on record?
A: 87.8%

Q: With COc1ccc(N(CC(=O)N2CCN(Cc3ccc4c(c3)OCO4)CC2)S(C)(=O)=O)cc1Cl [CBK265258] as the compound, how does the viability at 28.5 h, 10 µM read?
A: 84.3%

Q: With O=c1cc(O)c2sc3nc(-c4ccco4)cc(C(F)(F)F)c3c2[nH]1 [CBK270223] as the compound, how does the viability at 28.5 h, 10 µM read?
A: 98.2%

Q: Which viability at 28.5 h, 10 µM does the source give for Cc1cnc2[nH]c(C3CCCN(C(=O)c4cccnc4C)C3)cc2c1 (stereo not drawn) [CBK285169] here?
A: 101%

Q: Which viability at 28.5 h, 10 µM does the source give for Cc1csc(NC(=O)CSc2nnc3[nH]c(=O)cc(C)n23)n1 [CBK294413] here?
A: 81.7%

Q: With OCCNCCOc1ccc(Cl)cc1Br [CBK265083G] as the compound, how does the viability at 28.5 h, 10 µM read?
A: 116%

Q: Which viability at 28.5 h, 10 µM does the source give for O=C(O)CCCC(=O)Nc1ccccc1C(=O)NCc1ccco1 [CBK299840] here?
A: 85.8%

Q: With COc1cc(OC)nc(Oc2ccc(C(=O)O)cc2)n1 [CBK092222] as the compound, how does the viability at 28.5 h, 10 µM read?
A: 106%

Q: For O=C(O)C1CC(=O)N(CCc2ccccc2)/C(=N/CCc2ccccc2)S1 (stereo not drawn) [CBK265558], which viability at 28.5 h, 10 µM is on record?
A: 89.2%

Q: With COC(=O)c1c(NC(=O)CC2Nc3cccc4cccc(c34)NC2=O)sc(C)c1C (stereo not drawn) [CBK267562] as the compound, how does the viability at 28.5 h, 10 µM read?
A: 68.3%

Q: For NS(=O)(=O)c1ccc(CNC(=S)NC2CCCC2)cc1 [CBK265802], which viability at 28.5 h, 10 µM is on record?
A: 97.8%

Q: Which viability at 28.5 h, 10 µM does the source give for CC(C)Nc1nccnc1SCc1ccc(Cl)c(Cl)c1 [CBK103657] here?
A: 89.8%

Q: For O=C(COc1ccc2c3c(c(=O)oc2c1)CCC3)Nc1ccc(S(=O)(=O)N2CCOCC2)cc1 [CBK265640], which viability at 28.5 h, 10 µM is on record?
A: 82.4%

Q: With CCNc1cc(N2CCN(C)CC2)ccc1NS(=O)(=O)c1ccc(F)cc1F [CBK001496C] as the compound, how does the viability at 28.5 h, 10 µM read?
A: 95.8%

Q: For Cc1sc2ncn(CC(=O)NCCc3c[nH]cn3)c(=O)c2c1C [CBK304685], which viability at 28.5 h, 10 µM is on record?
A: 99.3%

Q: For Cc1cc(C)n(CCCC(=O)NCCc2cn3ccccc3n2)n1 [CBK304414], which viability at 28.5 h, 10 µM is on record?
A: 94.6%

Q: With Cc1cccc(-c2cncc(C3CCCN(C(=O)Cc4c[nH]c5ccccc45)C3)n2)c1 (stereo not drawn) [CBK286149] as the compound, how does the viability at 28.5 h, 10 µM read?
A: 84.1%

Q: For CNC(=O)c1ccc(CN(Cc2noc(C(C)C)n2)C2CC2)cc1 [CBK304084], which viability at 28.5 h, 10 µM is on record?
A: 83%

Q: Which viability at 28.5 h, 10 µM does the source give for C=CCn1c(SCC(=O)Nc2ccc(OC)cc2)nnc1-c1ccncc1 [CBK126824] here?
A: 88.9%

Q: With CCOc1ccc(S(=O)(=O)N(C)CC(=O)O)cc1 [CBK270032] as the compound, how does the viability at 28.5 h, 10 µM read?
A: 90.4%

Q: For CCOc1ccc(NC(=O)c2c(O)c3ccccc3n(CC)c2=O)cc1 [CBK287771], which viability at 28.5 h, 10 µM is on record?
A: 107%

Q: Which viability at 28.5 h, 10 µM does the source give for NCCC(=O)N(CCc1cc(C(F)(F)F)cc(C(F)(F)F)c1)c1cccc2ccccc12 [CBK000695T] here?
A: 0%

Q: For CC(C)(C)c1cc(C(=O)N/N=C/c2ccc(O)c([N+](=O)[O-])c2)[nH]n1 [CBK263844], which viability at 28.5 h, 10 µM is on record?
A: 98.4%

Q: Which viability at 28.5 h, 10 µM does the source give for COc1ccccc1NC(=S)NCCc1ccc(S(N)(=O)=O)cc1 [CBK266201] here?
A: 95.1%

Q: For CN1C(=O)COc2ccccc2C/C=C/C[C@H]2CN(C(=O)C3CCC3)CC[C@H]21 [CBK292087], which viability at 28.5 h, 10 µM is on record?
A: 95.1%

Q: For COc1ccc(-c2ccc(OC)cc2C(=O)Nc2ccc(Cn3cncn3)cc2)cc1 [CBK285588], which viability at 28.5 h, 10 µM is on record?
A: 109%

Q: With COC(C)(C)C(=O)N1CCC2(C/C=C/Cc3ccccc3OCC(=O)NCCNC2=O)CC1 [CBK292001] as the compound, how does the viability at 28.5 h, 10 µM read?
A: 105%

Q: Which viability at 28.5 h, 10 µM does the source give for COc1cccc2sc(NC(=O)CN3CCOCC3)nc12 [CBK149281] here?
A: 98.8%

Q: For O=C(Nc1nnc(-c2ccco2)o1)c1ccc(N2C(=O)CCC2=O)cc1 [CBK287423], which viability at 28.5 h, 10 µM is on record?
A: 90.7%

Q: Which viability at 28.5 h, 10 µM does the source give for CCn1c(=O)[nH]c(=O)c2cnc(-c3ccc(OC)cc3)nc21 [CBK291259] here?
A: 107%

Q: Which viability at 28.5 h, 10 µM does the source give for COc1ccc(CN(C)C(=O)CCc2c(C)nc3c(cnn3C(C)C)c2C)cc1 [CBK297087] here?
A: 80.6%

Q: For NC(=O)c1ccc(NCCCN2CCOCC2)c([N+](=O)[O-])c1 [CBK264443], which viability at 28.5 h, 10 µM is on record?
A: 104%

Q: For CCN(CC)c1c(C)nc2ccc(C(=O)Nc3cc(-c4ccccc4)ccc3OC)cn12 [CBK145980], which viability at 28.5 h, 10 µM is on record?
A: 121%

Q: Which viability at 28.5 h, 10 µM does the source give for CC(C)CCNC(=O)N(CCC#N)C1CCCCC1 [CBK156378] here?
A: 91.6%

Q: Which viability at 28.5 h, 10 µM does the source give for O=C(O)C1CCCN(C(=O)CCc2c[nH]c3ccccc23)C1 (stereo not drawn) [CBK286925] here?
A: 88.6%

Q: For COC(=O)c1c(NC(=O)C2C3C=CC(C3)C2C(=O)O)sc2c1CCCCC2 (stereo not drawn) [CBK262653], which viability at 28.5 h, 10 µM is on record?
A: 80.2%

Q: Which viability at 28.5 h, 10 µM does the source give for CC1=C(C(=O)OCC(=O)c2ccc(C)cc2)C2C=C(Br)C=CC2N=C1c1ccc(C)cc1 (stereo not drawn) [CBK264079] here?
A: 94%

Q: With NCC1OCCc2ccccc21 (stereo not drawn) [CBK027717] as the compound, how does the viability at 28.5 h, 10 µM read?
A: 108%

Q: For O=C(Nc1c[nH]c(=O)[nH]c1=O)c1ccc(Oc2ccc(C(=O)Nc3c[nH]c(=O)[nH]c3=O)cc2)cc1 [CBK261184], which viability at 28.5 h, 10 µM is on record?
A: 108%

Q: For CO[C@@]12CC[C@@H](OCC3CC3)C[C@@H]1N(Cc1c(C)cnn1C)CC2 [CBK307072], which viability at 28.5 h, 10 µM is on record?
A: 97%

Q: Which viability at 28.5 h, 10 µM does the source give for Cc1nnc(SCc2nnc(-c3ccccc3)o2)n1Cc1ccccc1 [CBK269743] here?
A: 92.2%

Q: Which viability at 28.5 h, 10 µM does the source give for O=C1N=C(NC2CC3CCC2C3)SC12CCC2 (stereo not drawn) [CBK073933] here?
A: 96.2%
